In ChEMBL document CHEMBL1821548, “Structure selectivity relationship studies of 17-cyclopropylmethyl-3,14β-dihydroxy-4,5α-epoxy-6β-[(4'-pyridyl)carboxamido]morphinan derivatives toward the development of the mu opioid receptor antagonists” (Bioorg Med Chem Lett, 2011):
pEC50, pKi: −log10 of the molar value.

Assays:
Mu-type opioid receptor [1] = biological target: T1, Mu-type opioid receptor (Homo sapiens, UniProt P35372); test: Agonist activity against mu opioid receptor expressed in CHO cells assessed as stimulation of [35S]-GTPgammaS binding; type: functional, cell-based
T1 sequence (P35372 whole entry): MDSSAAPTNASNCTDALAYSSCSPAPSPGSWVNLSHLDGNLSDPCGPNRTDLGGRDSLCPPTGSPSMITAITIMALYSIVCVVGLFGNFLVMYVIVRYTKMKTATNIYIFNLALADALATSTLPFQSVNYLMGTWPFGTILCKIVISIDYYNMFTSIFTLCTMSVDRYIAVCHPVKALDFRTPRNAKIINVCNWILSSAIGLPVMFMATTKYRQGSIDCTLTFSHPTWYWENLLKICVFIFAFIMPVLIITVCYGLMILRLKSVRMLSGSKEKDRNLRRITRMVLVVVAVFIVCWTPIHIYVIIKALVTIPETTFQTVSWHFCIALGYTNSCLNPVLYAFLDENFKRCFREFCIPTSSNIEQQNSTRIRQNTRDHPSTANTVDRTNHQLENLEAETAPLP

[2] = biological target: Delta-type opioid receptor (Homo sapiens, UniProt P41143); test: Displacement of [3H]-NTI from delta opioid receptor expressed in CHO cells after 1 hr; type: cell-based
Delta-type opioid receptor, sequence (P41143 whole entry): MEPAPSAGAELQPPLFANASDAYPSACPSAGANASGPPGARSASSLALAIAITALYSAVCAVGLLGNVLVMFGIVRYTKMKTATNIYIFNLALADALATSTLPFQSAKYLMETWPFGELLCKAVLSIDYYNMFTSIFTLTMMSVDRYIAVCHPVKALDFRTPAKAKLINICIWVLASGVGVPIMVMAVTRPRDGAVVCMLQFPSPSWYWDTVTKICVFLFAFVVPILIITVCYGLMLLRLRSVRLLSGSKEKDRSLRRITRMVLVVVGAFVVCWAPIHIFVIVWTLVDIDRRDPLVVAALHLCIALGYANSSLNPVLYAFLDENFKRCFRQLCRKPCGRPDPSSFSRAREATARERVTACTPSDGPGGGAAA

[3] = Selectivity ratio of Ki for delta opioid receptor to Ki for mu opioid receptor
Mu-type opioid receptor [4] = biological target: T1, Mu-type opioid receptor; test: Displacement of [3H]naloxone from mu opioid receptor expressed in CHO cells after 1 hr; type: cell-based
[5] = Selectivity ratio of Ki for kappa opioid receptor to Ki for mu opioid receptor
Mu-type opioid receptor [6] = biological target: T1, Mu-type opioid receptor; test: Agonist activity against mu opioid receptor expressed in CHO cells assessed as stimulation of [35S]-GTPgammaS binding relative to DAMGO; type: functional, cell-based
[7] = biological target: Kappa-type opioid receptor (Homo sapiens, UniProt P41145); test: Displacement of [3H]-norBNI from kappa opioid receptor expressed in CHO cells after 1 hr; type: cell-based
Kappa-type opioid receptor, sequence (P41145 whole entry): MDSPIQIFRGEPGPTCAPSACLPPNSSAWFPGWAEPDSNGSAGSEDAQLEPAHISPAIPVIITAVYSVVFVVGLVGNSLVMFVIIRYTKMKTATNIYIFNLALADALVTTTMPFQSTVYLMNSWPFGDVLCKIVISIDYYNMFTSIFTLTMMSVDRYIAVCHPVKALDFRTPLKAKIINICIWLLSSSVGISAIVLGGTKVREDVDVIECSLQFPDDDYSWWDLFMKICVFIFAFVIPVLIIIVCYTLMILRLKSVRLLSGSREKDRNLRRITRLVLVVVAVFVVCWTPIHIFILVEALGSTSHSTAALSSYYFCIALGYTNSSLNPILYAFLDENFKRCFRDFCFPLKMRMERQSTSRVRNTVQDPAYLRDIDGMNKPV

Mu-type opioid receptor [8] = biological target: T1, Mu-type opioid receptor; conditions: CHO; 100 nM
Description: Agonist activity against mu opioid receptor expressed in CHO cells assessed as stimulation of [35S]-GTPgammaS binding at 100 nM relative to DAMGO

| Compound | pEC50 (Mu-type opioid receptor [1]) | pKi [2] | Ratio Ki [3] | pKi (Mu-type opioid receptor [4]) | Ratio Ki [5] | Emax (Mu-type opioid receptor [6]) [%] | pKi [7] | Emax (Mu-type opioid receptor [8]) [%] |
| --- | --- | --- | --- | --- | --- | --- | --- | --- |
| Cc1cnccc1C(=O)N[C@@H]1CC[C@@]2(O)[C@H]3Cc4ccc(O)c5c4[C@@]2(CCN3CC2CC2)[C@H]1O5 | 8.82 | 6.56 | 470 | 9.24 | 166 | 30.6 | 7.01 | – |
| C[C@@H](O)[C@H](NC(=O)[C@H]1NC(=O)[C@H]([C@@H](C)O)NC(=O)[C@H](CCCNC(=N)N)NC(=O)[C@@H](Cc2c[nH]c3ccccc23)NC(=O)[C@H](Cc2ccc(O)cc2)NC(=O)[C@@H](NC(=O)[C@H]2Cc3ccccc3CN2)CSSC1(C)C)C(N)=O | – | – | – | – | – | – | – | 1.99 |
| CN1CCC(C(=O)N[C@@H]2CC[C@@]3(O)[C@H]4Cc5ccc(O)c6c5[C@@]3(CCN4CC3CC3)[C@H]2O6)CC1 | 8.29 | 5.59 | 2970 | 9.06 | 7.5 | 37.2 | 8.19 | – |
| O=C(N[C@@H]1CC[C@@]2(O)[C@H]3Cc4ccc(O)c5c4[C@@]2(CCN3CC2CC2)[C@H]1O5)c1ccnc(Br)c1 | 8.92 | 6.76 | 276 | 9.20 | 0.3 | 50.8 | 9.74 | – |
| O=C(N[C@@H]1CC[C@@]2(O)[C@H]3Cc4ccc(O)c5c4[C@@]2(CCN3CC2CC2)[C@H]1O5)c1ccnc(Cl)c1 | 9.08 | 6.22 | 6110 | 10.00 | 1.5 | 58.2 | 9.82 | – |
| O=C(Cc1ccncc1)N[C@@H]1CC[C@@]2(O)[C@H]3Cc4ccc(O)c5c4[C@@]2(CCN3CC2CC2)[C@H]1O5 | 8.63 | 6.06 | 1020 | 9.07 | 10.6 | 32.8 | 8.05 | – |
| Cc1cc(C(=O)N[C@@H]2CC[C@@]3(O)[C@H]4Cc5ccc(O)c6c5[C@@]3(CCN4CC3CC3)[C@H]2O6)ccn1 | 8.95 | 7.05 | 232 | 9.41 | 1.5 | 43.3 | 9.24 | – |
| O=C(CCc1ccncc1)N[C@@H]1CC[C@@]2(O)[C@H]3Cc4ccc(O)c5c4[C@@]2(CCN3CC2CC2)[C@H]1O5 | 8.84 | 6.53 | 516 | 9.24 | 2.9 | 22.6 | 8.78 | – |
| O=C(N[C@@H]1CC[C@@]2(O)[C@H]3Cc4ccc(O)c5c4[C@@]2(CCN3CC2CC2)[C@H]1O5)c1ccncc1Br | 8.88 | 6.89 | 285 | 9.35 | 6.3 | 23.2 | 8.55 | – |
| O=C(N[C@@H]1CC[C@@]2(O)[C@H]3Cc4ccc(O)c5c4[C@@]2(CCN3CC2CC2)[C@H]1O5)c1ccncc1Cl | 8.63 | 6.30 | 746 | 9.17 | 29.6 | 24.9 | 7.70 | – |
| O=C(CNC(=O)c1ccncc1)N[C@@H]1CC[C@@]2(O)[C@H]3Cc4ccc(O)c5c4[C@@]2(CCN3CC2CC2)[C@H]1O5 | 8.55 | 6.28 | – | 9.14 | – | 22.6 | 6.69 | – |
